Assay [1] relates to P-gp. Kind of assay: Western blot of P-gp expression in MCF7 breast cancer cells. In kind it is cell-based, human. The following applies: 1 μM, 24, 48, 72 hours. The protocol: MCF7 cells (human breast cancer cell line) were cultured in 24 well plates until they reached confluency. FIGS. 17A-17C are images of western blots of cells treated with vehicle control (i.e., DMSO) (“D”) or 1 μM of the broad spectrum AR agonist NECA (“N”) (FIG. 17A), 1 μM of the A2A AR agonist Lexiscan® (“L”) (FIG. 17B), or 1 μM of the A2B AR agonist BAY60 (“B”) (FIG. 17C), respectively for 24, 48, 72 hours. Cells were lysed with lysis buffer and expression levels of P-gp, MMP9, or VEGF analyzed by western blot. GAPDH was used as loading a control. FIG. 17D is a graph of experimental results showing that Lexiscan® down-regulates P-gp expression in MCF7 breast cancer cells. MCF7 breast cancer cells were treated with Lex (0.25 μM) concomitant with Rhodamine 123 (“Rho123”). […] Students T test, P<0.001. […] FIG. 17E is a fluorescence microscopy image showing MCF7 breast cancer cells grown on coverslips and treated with vehicle (DMSO, control), or A2 AR agonists, Lexiscan® (1 μM) or A1193 (1 μM) for 15 minutes in the presence of epirubicin. Cells were stained with an antibody to P-gp and mounted with DAPI. FIG. 17F is a graph of the fluorescent intensity quantified from FIG. 17E by measuring the mean fluorescent intensity (“MFI”) of epirubicin (pink) that is present in cell nuclei. ***=P<0.0001.
(In western blotting, separated proteins are transferred to a membrane and probed.)

The test system of a further assay is BCRP1/ABCG2. The experiment in a line: BCRP1 expression in brain of WT mice (western blot). The assay is classed as in vivo, mouse.
Assay [2] relates to P-gp. Kind of assay: Western blot of P-gp expression in primary human brain endothelial cells. The conditions noted are these: 1 μM, up to 72 hours. The assay is classed as cell-based. The protocol:
HCMEC-D3 and HBMVEC cells were plated in 12-well plates and were grown until they reached 100% confluency. The media was replaced with fresh media containing 1 μM of Lexiscan® or NECA with proper vehicle control (DMSO) for up to 72 hours. Cells were lysed by lysis buffer […] containing protease inhibitor cocktail and stored for later use (−70° C.). For cytoskeletal fraction analysis, cells were lysed in CSK buffer (100 mM NaCl, 300 mM sucrose, 3 mM MgCl2, 10 mM PIPES, pH 6.8). For brain samples, half of the brain was homogenized and lysed with […] lysis buffer and centrifuged at 17,000 g for 20 minutes and 1:10 diluted samples were used for analysis. Sample was loaded on 7% SDS PAGE at 100 V for 1 hour and transferred to the nitrocellulose paper. It was blocked with 1% BSA and incubated with anti-P-gp antibody (Genetex, 1:2000) overnight. Subsequently, it was washed with TBST and incubated with anti-rabbit secondary antibody (1:2000) for 1 hour. It was washed with TBST and developed with ECL substrate and exposed to x-ray film. Anti-GAPDH or −β-actin antibody was used as loading control. The intensity of band was analyzed with densitometric analysis and plotted as a graph for analysis of time-course effect of AR signaling on P-gp expression.

Assay [3] concerns P-gp. Kind of assay: Microscopic (IFA) analysis of Rho123 uptake in primary human brain endothelial cells. The assay is classed as cell-based. The following applies: 2.5 μM Rho123, 1 μM agonist, 15 minutes to 24 hours. The protocol:
Human brain endothelial cells and primary brain endothelial cells were plated onto 48-well plates until 100% confluence was reached, and media were replaced with fresh media containing Rho123 (2.5 μM) with different concentrations of Lexiscan®, NECA, or PSC833. Reaction was halted by adding 250 μl of ice-cold PBS. Plate was washed with 250 μl of ice-cold PBS 3 times and lysed with lysis buffer. Each sample was analyzed using Synergy Fluometer (Biotek), with excitation at 488 nm and emission at 523 nm. Concentration of Rho123 was analyzed using standard curve created by serial dilution of Rho123. Final concentration of Rho123 was normalized using protein concentration of lysate measured using Bradford assay (Bio-Rad). For microscopic analysis of Rho123 uptake, cells were cultured on coverslip and Rho123 was treated with or without Lexiscan® or NECA with DMSO as control. Reaction was terminated by adding ice-cold PBS and washed with ice-cold PBS 3 times. Cells were fixed with PFA and costained with anti-human P-gp. Cells were visualized with a Zeiss fluorescent microscope and captured with axiovision software. FIG. 4G is a schematic illustration of the Rho123 uptake assay.

The test system of assay [4] is P-gp. Kind of assay: Rho123 accumulation in MCF7 breast cancer cells. The following applies: 0.025 μM Lexiscan® concomitant with Rho123, vs vehicle control. The assay is classed as cell-based, human.
For assay [5], the system named is P-gp. Kind of assay: Ubiquitination of P-gp in primary human brain endothelial cells (immunoprecipitation, IFA). The assay is classed as cell-based. The conditions noted are these: 15 minutes. The protocol:
FIG. 10A is a western blot showing immunoprecipitation analysis of ubiquitination of P-gp in human primary brain endothelial cells upon activation with Lexiscan® for 15 minutes. P-gp was pulled down with an anti-P-gp antibody and immunoblotted with an anti-ubiquitin antibody. FIG. 10B are immunofluorescence microscopy images depicting ubiquitination of P-gp in human primary brain endothelial cells upon activation with Lexiscan® for 15 minutes. Cells were fixed, permeabilized, and stained with an anti-P-gp (green) and anti-ubiquitin (red) antibody. Nucleus was counterstained with DAPI (blue). The scale bar indicates 25 μm. FIG. 10C is a schematic diagram depicting the mechanism of P-gp down-regulation by Lexiscan®. Upon activation of A2A AR, P-gp is cleaved by MMP9 and secreted to the extracellular space (a), or ubiquitinated and digested by proteasome (b), or can relocate from the soluble fraction to the insoluble fraction (c). These mechanisms may occur independently or in combination.
4 G Sepharose beads were purchased from Invitrogen and incubated with human P-gp antibody (BD Biosciences) overnight at 4° C. using a rocking shaker. Beads were washed twice using lysis buffer containing protease inhibitor, and lysates from primary brain endothelial cells were incubated overnight at 4° C. using a rocking shaker. […]

Another assay has as its system MMP9. The experiment in a line: MMP9 in mouse brain endothelial cells after intravenous injection (IFA). The assay is classed as in vivo. The conditions noted are these: 0.05 mg/kg i.v.; 5 minutes. The protocol: Vehicle control (DMSO) or 0.05 mg/kg of Lexiscan® was injected intravenously into mice. Five minutes later, mice were sacrificed and frozen sections of the brain were stained with anti-MMP9 (red) or anti-GLUT-1 (green) antibodies. Nucleus was counterstained with DAPI (blue). The scale bar indicates 50 μm.

With `CCNC(=O)[C@H]1O[C@@H](n2cnc3c(N)ncnc32)[C@H](O)[C@@H]1O` [NECA, (2S,3S,4R,5R)-5-(6-aminopurin-9-yl)-N-ethyl-3,4-dihydroxyoxolane-2-carboxamide], in the assay with P-gp [1], the “P-gp expression (western blot)” value was “decreased P-gp expression in cultured MCF7 cells at 48 and 72 hour time points”. The “BCRP expression level in brain” value in the assay on BCRP1/ABCG2 (2 and 18 hours after NECA) is listed as “not significantly affected”. Moreover, the “P-gp expression (western blot, vs DMSO control)” value in the assay on P-gp [2] is “began to decrease at 30 minutes and was maintained for up to 48 hours and recovered by 72 hours”. The “Rho123 accumulation visualized by IFA” value with P-gp [3] is listed as “increased Rho123 accumulation at later time points, beginning at 4 hours; this was maintained for up to 24 hours”.

Consider `CNC(=O)c1cnn(-c2nc(N)c3ncn([C@@H]4O[C@H](CO)[C@@H](O)[C@H]4O)c3n2)c1` [Lexiscan®, 1-[6-amino-9-[(2R,3R,4S,5R)-3,4-dihydroxy-5-(hydroxymethyl)oxolan-2-yl]purin-2-yl]-N-methylpyrazole-4-carboxamide], for which the Rho123 accumulation entry in the assay with P-gp [4] was “significant Rho123 accumulation occurred by 15 minutes and 60 minutes”. The “P-gp expression (western blot)” value with P-gp [1] is “decreased P-gp expression in cultured MCF7 cells at 48 and 72 hour time points”. Besides, the “Time at which effect on BCRP occurred” value with BCRP1/ABCG2 came to 15 min. Also, the “BCRP expression in brain” value with BCRP1/ABCG2 (Lexiscan® treatment, 5 to 60 minutes) is reported as “potently down-regulated BCRP expression by 15 minutes, after which its expression began to recover by 60 minutes”. The “P-gp expression (western blot, vs DMSO control)” value with P-gp [2] was “rapid down-modulation of P-gp expression, which began to decrease at 15 minutes and was maintained at a decreased level for up to 4 hours”. The “Ubiquitinylation of P-gp” value in the assay on P-gp [5] is “induced increased ubiquitinylation of P-gp compared with vehicle control”. Besides, the “Rho123 accumulation visualized by IFA” value in the assay on P-gp [3] was “increased the accumulation of Rho123 beginning at 15 minutes to 1 hour”. Further, the “MMP9 in mouse brain endothelial cells” value in the assay on MMP9 is listed as “rapid increase of MMP9”.

For the origin of these results see US10953015B2, “Use of adenosine receptor signaling to regulate P-gp function” (CORNELL UNIVERSITY, priority 2016, dated 2021).
